Assay results taken from the NIST ThermoML archive (doi:10.1021/je500381c).

Test: xn = mol fraction of the nth substance listed
Settings: for mass density / viscosity: 100 kPa, Liquid; for mass density: Vibrating tube method; for surface tension liquid-gas: Drop volume

CC12CC3CC(C)(C1)CC(C)(C3)C2 [1,3,5-trimethyladamantane] + CCCCCCCO
Settings | mass density [kg/m3] | surface tension liquid-gas [mN/m] | viscosity [mPa·s]
293.15 K, x2 = 0 | 887.48 | – | 2.601
293.15 K, x2 = 0.1001 | 882.47 | – | 2.626
293.15 K, x2 = 0.2001 | 877.46 | – | 2.775
293.15 K, x2 = 0.3002 | 872.11 | – | 2.97
293.15 K, x2 = 0.4004 | 866.49 | – | 3.242
293.15 K, x2 = 0.5001 | 860.53 | – | 3.5
293.15 K, x2 = 0.6002 | 854.11 | – | 4.051
293.15 K, x2 = 0.7001 | 847.23 | – | 4.645
293.15 K, x2 = 0.7999 | 839.77 | – | 5.371
293.15 K, x2 = 0.9002 | 831.44 | – | 6.221
298.15 K, x2 = 0 | 883.99 | 26.17 | 2.338
298.15 K, x2 = 0.1001 | 878.9 | 26.19 | 2.349
298.15 K, x2 = 0.2001 | 873.88 | 26.22 | 2.469
298.15 K, x2 = 0.3002 | 868.52 | 26.26 | 2.632
298.15 K, x2 = 0.4004 | 862.91 | 26.32 | 2.854
298.15 K, x2 = 0.5001 | 856.94 | 26.34 | 3.131
298.15 K, x2 = 0.6002 | 850.53 | 26.36 | 3.51
298.15 K, x2 = 0.7001 | 843.66 | 26.32 | 3.99
298.15 K, x2 = 0.7999 | 836.22 | 26.3 | 4.567
298.15 K, x2 = 0.9002 | 827.93 | 26.29 | 5.229
303.15 K, x2 = 0 | 880.47 | – | 2.118
303.15 K, x2 = 0.1001 | 875.31 | – | 2.114
303.15 K, x2 = 0.2001 | 870.27 | – | 2.212
303.15 K, x2 = 0.3002 | 864.91 | – | 2.35
303.15 K, x2 = 0.4004 | 859.29 | – | 2.533
303.15 K, x2 = 0.5001 | 853.32 | – | 2.758
303.15 K, x2 = 0.6002 | 846.91 | – | 3.066
303.15 K, x2 = 0.7001 | 840.05 | – | 3.457
303.15 K, x2 = 0.7999 | 832.63 | – | 3.924
303.15 K, x2 = 0.9002 | 824.38 | – | 4.464
308.15 K, x2 = 0 | 876.94 | – | 1.93
308.15 K, x2 = 0.1001 | 871.72 | – | 1.911
308.15 K, x2 = 0.2001 | 866.65 | – | 1.992
308.15 K, x2 = 0.3002 | 861.27 | – | 2.108
308.15 K, x2 = 0.4004 | 855.65 | – | 2.261
308.15 K, x2 = 0.5001 | 849.68 | – | 2.444
308.15 K, x2 = 0.6002 | 843.28 | – | 2.699
308.15 K, x2 = 0.7001 | 836.41 | – | 3.015
308.15 K, x2 = 0.7999 | 829.02 | – | 3.396
308.15 K, x2 = 0.9002 | 820.8 | – | 3.841
313.15 K, x2 = 0 | 873.4 | – | 1.765
313.15 K, x2 = 0.1001 | 868.1 | – | 1.737
313.15 K, x2 = 0.2001 | 863 | – | 1.802
313.15 K, x2 = 0.3002 | 857.62 | – | 1.899
313.15 K, x2 = 0.4004 | 851.98 | – | 2.027
313.15 K, x2 = 0.5001 | 846.01 | – | 2.178
313.15 K, x2 = 0.6002 | 839.62 | – | 2.387
313.15 K, x2 = 0.7001 | 832.76 | – | 2.648
313.15 K, x2 = 0.7999 | 825.37 | – | 2.957
313.15 K, x2 = 0.9002 | 817.19 | – | 3.327
318.15 K, x2 = 0 | 869.86 | – | 1.621
318.15 K, x2 = 0.1001 | 864.47 | – | 1.585
318.15 K, x2 = 0.2001 | 859.34 | – | 1.636
318.15 K, x2 = 0.3002 | 853.95 | – | 1.719
318.15 K, x2 = 0.4004 | 848.3 | – | 1.826
318.15 K, x2 = 0.5001 | 842.32 | – | 1.952
318.15 K, x2 = 0.6002 | 835.93 | – | 2.124
318.15 K, x2 = 0.7001 | 829.07 | – | 2.338
318.15 K, x2 = 0.7999 | 821.7 | – | 2.593
318.15 K, x2 = 0.9002 | 813.54 | – | 2.899
323.15 K, x2 = 0 | 866.31 | – | 1.494
323.15 K, x2 = 0.1001 | 860.82 | – | 1.452
323.15 K, x2 = 0.2001 | 855.66 | – | 1.494
323.15 K, x2 = 0.3002 | 850.25 | – | 1.561
323.15 K, x2 = 0.4004 | 844.59 | – | 1.652
323.15 K, x2 = 0.5001 | 838.61 | – | 1.756
323.15 K, x2 = 0.6002 | 832.21 | – | 1.899
323.15 K, x2 = 0.7001 | 825.35 | – | 2.049
323.15 K, x2 = 0.7999 | 817.99 | – | 2.287
323.15 K, x2 = 0.9002 | 809.87 | – | 2.541
328.15 K, x2 = 0 | 862.76 | – | 1.384
328.15 K, x2 = 0.1001 | 857.16 | – | 1.335
328.15 K, x2 = 0.2001 | 851.96 | – | 1.368
328.15 K, x2 = 0.3002 | 846.53 | – | 1.424
328.15 K, x2 = 0.4004 | 840.86 | – | 1.5
328.15 K, x2 = 0.5001 | 834.86 | – | 1.587
328.15 K, x2 = 0.6002 | 828.46 | – | 1.707
328.15 K, x2 = 0.7001 | 821.6 | – | 1.855
328.15 K, x2 = 0.7999 | 814.26 | – | 2.029
328.15 K, x2 = 0.9002 | 806.15 | – | 2.239
333.15 K, x2 = 0 | 859.2 | – | 1.284
333.15 K, x2 = 0.1001 | 853.48 | – | 1.232
333.15 K, x2 = 0.2001 | 848.24 | – | 1.257
333.15 K, x2 = 0.3002 | 842.78 | – | 1.303
333.15 K, x2 = 0.4004 | 837.09 | – | 1.367
333.15 K, x2 = 0.5001 | 831.09 | – | 1.44
333.15 K, x2 = 0.6002 | 824.68 | – | 1.54
333.15 K, x2 = 0.7001 | 817.82 | – | 1.663
333.15 K, x2 = 0.7999 | 810.48 | – | 1.808
333.15 K, x2 = 0.9002 | 802.4 | – | 1.984
